US6207648A, “Methods of using cytochrome P450 reductase for the enhancement of P450-based anti-cancer gene therapy” (priority 1998, dated 2001)

Tests used:
parental 9L cells = experiment: Limited dilution assay of conditioned media, bystander killing of parental 9L cells; format: cell-based, rat; settings: PR11, PR7 vs P3, P17; 2 mM CPA 48 h
Description: FIG. 5 is a graph depicting the effects of culture media from P450 and RED-transduced tumor cells incubated with CPA, on the survival of wild-type tumor cells. […] Parental 9L cells seeded in 30 mm plates (10^4 cells/well) in duplicate were cultured with 5-50% of condition media collected from each of the indicated cell lines (1.5×10^6) incubated with 2 mM CPA for 48 hours as described below in the "Materials Methods" section of Example 1. Five days after treatment, the number of viable parental 9L cells was determined using a hemacytometer based on trypan blue exclusion (mean for duplicate values).
Limited dilution assay to evaluate bystander killing effect: 9L cells were seeded in 6-well plates at 1.5×10^6 cells/well for 12 hours, and treated with 2 mM CPA for 48 hours. The conditioned media from each well was collected, diluted 5-50% into fresh media as indicated for each experiment, and added into wells of a second set of 6-well plates pre-seeded with parental 9L cells (10^4 cells/well). Cultures were maintained for 5-7 days and colonies were scored as described for the clonogenic assay.

CYP2B1 = experiment: Fluorometric assay of 4-hydroxy-CPA in culture medium of 9L tumor cells (Example 1); format: in vitro ADME, rat; settings: 2 mM CPA, 24 h
Description: FIG. 7 is a bar graph showing that higher 4-hydroxy-CPA levels are produced by P450 and RED-containing tumor cells compared to tumor cells containing P450 alone. The parental CYP2B1^+ cell lines P3 and P17, and their corresponding RED overexpressing derivatives PR11 and PR7 were plated confluent (1.5×10^6 cells per 30 mm culture dish) so that the cell number remained relatively constant during the course of the experiment. Cells were incubated for 24 hours with 2 mM CPA in the presence of 5 mM semicarbazide. Medium was collected and then assayed for 4-hydroxy-CPA using a fluorometric assay, as described below in the "Materials and Methods" section of Example 1. Limit of detection in this assay was approximately 1 μM 4-hydroxy-CPA. The higher CPA 4-hydroxylase activity of line P 17 compared to line P3 is consistent both with the higher cytotoxic potential of CPA-conditioned media from P17 cells (FIG. 5), and with the greater cytotoxicity of CPA toward the P 17 cells in vitro (FIGS. 2, 3) and in vivo (FIG. 9, below).

[1] = tested on: 9L and 9L-R cells infected with Ad.CMV-2B1; experiment: Adenovirus-mediated CYP2B1 gene transduction, CPA cytotoxicity (XTT); format: cell-based, rat
Description: FIGS. 8A and 8B are graphs depicting much greater cytotoxicity of adenovirus-mediated P450 gene transfer combined with CPA treatment in the case of 9L tumor cells engineered to express RED (FIG. 8B), compared to wild-type 9L cells that express basal RED activity (FIG. 8A). Cells were infected with Ad.CMV-2B1 at multiplicities of infection (MOI) ranging from 50-800, as indicated by the values in parenthesis on the right of each panel. Uninfected cells (UI) were used as controls. At 24 hours post infection, cells were replated at 500 cells per well in duplicate on 96-well plates. CPA was then added at concentrations up to 2 mM. After 5 days of incubation, cell survival was determined by an XTT colorimetric assay.
Adenovirus-mediated CYP2B1 gene transduction: A recombinant adenovirus, Ad.CMV-2B1, carrying the CYP2B1 gene was constructed as described in Chen, L., et al., Cancer Res. 56:1331-1340 (1996). Large scale production of recombinant adenovirus was performed by growth in 293 cells followed by purification by double cesium gradient ultracentrifugation (Graham, F. L. and Prevec, L., "Manipulation of Adenovirus Vectors" in Methods in Molecular Biology:Gene Transfer and Expression Protocols, volume 7, E. J. Murray (ed.), The Human Press, Inc., Clifton, N.J., pages 109-127 (1991)). The titer of purified adenovirus was determined in a spectrophotometer at 260 nm and by plaque assays. Ad.CMV-2B1 was added to the cells plated on 30 mm diameter tissue culture plates at multiplicities of infection (MOI) as indicated in the figure legends. Twenty four hours after viral infection, the infected cells were trypsinized and replated at 500 cells/well onto 96 well tissue culture plates and treated with CPA. Four to seven days after CPA treatment, the number of surviving cells was determined using the XTT assay described above.

[2] = in vivo; cited from earlier work
[3] = tested on: 9L/pBabe, 9L/2B6, 9L/hRED and 9L/2B6/hRED gliosarcoma cells; experiment: Cytotoxicity assay of 9L cells transduced with human RED and/or P450 2B6, normoxic or hypoxic (Example 3)
Description: Cells were seeded at 4000 cells/well in 48-well plates and treated with increasing concentrations of CPA for 4 days. Cell growth in comparison to drug-free controls was determined by crystal violet staining and is presented as mean±SD for n=3 replicates.
FIG. 21 is a graph depicting the cytotoxic effects of the bioreductive drug TPZ toward 9L/pBabe control cells and 9L cells transduced with retroviruses encoding human RED and/or P450 2B6 under normoxic culture conditions. Cells were seeded at 4000 cells/well in 48-well plates and treated with increasing concentrations of TPZ for 4 days. Cell growth in comparison to drug-free controls was determined by crystal violet staining and is presented as mean±SD for n=3 replicates.
FIG. 22 is a graph depicting the cytotoxicity of increasing concentrations of TPZ under hypoxic conditions (1% O2) toward 9L tumor cells transduced with retroviruses encoding P450 2B6 and/or human RED. 9L/pBabe cells served as controls. Cells were seeded at 4000 cells/well in 48-well plates and treated with increasing concentrations of TPZ for 4 days. Cell growth in comparison to drug-free controls was determined by crystal violet staining and is presented as mean±SD for n=3 replicates.
FIGS. 24A, 24B and 24C are graphs depicting the cytotoxic effects of TPZ (5 or 10 μM, as indicated) in combination with increasing concentrations of CPA under normoxic culture conditions (19.6% O2, 5% CO2). The data shown were obtained using 9L/2B6/hRED cells (FIG. 24A), 9L/hRED cells (FIG. 24B) and 9L/pBabe (control) cells (FIG. 24C). Data were compared to the cytotoxicity of increasing concentrations of CPA alone (i. e., in the absence of TPZ) measured using the same pools of tumor cells. Cells were seeded at 4000 cells/well in 48-well plates and then treated with the indicated drug concentrations for 4 days. Cell growth in comparison to drug-free controls (i.e., in the absence of CPA and TPZ) was determined by crystal violet staining and is presented as mean±SD for n=3 replicates.
FIGS. 25A, 25B and 25C are graphs depicting the cytotoxic effects of TPZ (0.5 or 1.5 μM, as indicated) in combination with increasing concentrations of CPA under hypoxic culture conditions (1% O2, 5% CO2). The data shown were obtained using 9L/2B6/hRED cells (FIG. 25A), 9L/hRED cells (FIG. 25B) and 9L/pBabe (control) cells (FIG. 25C). Data were compared to the cytotoxicity of increasing concentrations of CPA alone (i.e., in the absence of TPZ) measured using the same pools of tumor cells. Cells were seeded at 4000 cells/well in 48-well plates and then treated with the indicated drug concentrations for 4 days. Cell growth in comparison to drug-free controls (i.e., in the absence of CPA and TPZ) was determined by crystal violet staining and is presented as mean±SD for n=3 replicates.
Cytotoxicity assays: To evaluate the chemosensitivity of the P450- and P450/RED-expressing 9L tumor cells, cells were plated in triplicate at 4000 cells/well of a 48-well plate 18-24 hours prior to drug treatment. Cells were then treated with drugs (0 to 1 mM CPA or 0 to 50 μM TPZ, as indicated in each experiment) and placed in a tissue culture incubator maintained under hypoxic conditions (1% O2, 5% CO2, 94% N2) or under normoxic conditions (19.6% O2, 5% CO2, 75.4% N2) for a period of 4 days. 9L/pBabe cells, which were transduced with the empty retroviral plasmid pBabe-puro (see, Example 2), served as controls. Cells remaining after this time were quantitated using a crystal violet/alcohol-extraction assay, as described under Example 2. Data are presented as cell number relative to drug-free controls, mean±SD values for triplicate samples, unless indicated otherwise.

Which “cytotoxicity of conditioned media of CYP2B1+ RED+++ vs CYP2B1+ cells incubated with CPA” value (parental 9L cells) does the source give for `O=P1(N(CCCl)CCCl)NCCCO1` (centres unmarked) [CPA, cyclophosphamide] here?
Its value is “substantially more cytotoxic”.

And the “4-hydroxylated metabolites in 9L parental cells” value (CYP2B1)?
Its value is “corresponds to the limit of detection”.

What about the “levels of 4-hydroxy-CPA formed by CYP2B1+ RED+++ vs parental CYP2B1+ cell lines” value (CYP2B1; 5 mM semicarbazide) of the same molecule?
Its value is “up to 3 fold”.

And the “CPA sensitivity of cells infected with Ad.CMV-2B1” value ([1]; MOI 50 to 800, most striking in RED overexpressing cells)?
Its value is “acquired CPA sensitivity”.

What about the “enhancement of drug cytotoxicity in Ad.CMV-2B1-infected cells at higher viral multiplicities” value ([1]; RED-overexpressing 9L cells) of the same molecule?
Its value is “further enhanced”.

And the “CPA sensitivity of 9L cells infected with lacZ adenovirus” value ([1]; control experiment)?
Its value is “did not sensitize the cells”.

What about the “enhancement of drug cytotoxicity in Ad.CMV-2B1-infected cells at higher viral multiplicities” value ([1]; parental 9L cells, MOI above 200) of the same molecule?
Its value is “not further enhanced”.

And the “side effects of systemic distribution of drug and alkylating metabolites” value [2]?
The value was “cardiotoxicity, renal toxicity, marrow suppression, and neurotoxoxicity”.

What about the “effect of hypoxia on CPA cytotoxicity toward 9L/2B6/RED or 9L/2B6 cells” value ([3]; 1% O2) of the same molecule?
The value was “does not significantly alter the cytotoxicity”.

What about the “CPA cytotoxicity on retroviral transduction of hRED” value ([3]; 9L/2B6/hRED vs 9L/2B6, normoxic) of the same molecule?
Its value is “large increase in CPA cytotoxicity”.

And the “CPA cytotoxicity in 9L/hRED and 9L/pBabe cells” value ([3]; normoxic)?
The value was “No CPA cytotoxicity was observed”.
